Data on 1 molecule can be found in patent US20210380946A1 (priority 2018, published 2021).

This data set in a line: Clinical trial: neutropenia, thrombocytopenia and toxicity post-melphalan reduced-intensity conditioning. Conditions: for Days ANC >500 (Absolute Neutrophil Count) / Days Platelets <50: 140 mg/m^2 melphalan single dose.

In the case of `N[C@@H](Cc1ccc(N(CCCl)CCCl)cc1)C(=O)O` [Melphalan, melphalan], under “Subject 1”, the “Days ANC >500 (Absolute Neutrophil Count)” value was found to be 9 days and the “Days Platelets <50” value is 13 days. Besides, under “Subject 2”, the “Days ANC >500 (Absolute Neutrophil Count)” value came to 7 days and the “Days Platelets <50” value was determined as 8 days. In addition, for the setting “both subjects”, the “chemotherapy related toxicity: cytopenia” value is given as “temporary cytopenia” and the “chemotherapy related toxicity: transaminases” value is recorded as “temporary mild evelvations in transaminases”. Further, the “chemotherapy related toxicity: mucositis” value (both subjects, follow-up 1 year and 6 months) was 2-3 grade.
